Data set [1] deals with TACE expressed on THP-1 cells (Homo sapiens, UniProt P78536). The note with it: read-out: IC50 TACE blockade on THP-1 cells; literature study (ref. 1); cited from earlier work.
The conditions of data set [2]: 50 μg/ml in 50 mg/ml human serum albumin, 72 hours, room temperature.
The next data set can be described thus: in vitro. The note with it: human, plasma.
A further data set concerns chimpanzees. The experiment in a line: escalating i.v. doses in adult chimpanzees: toxicity and immunogenicity. The note with it: two adult chimpanzees.
Data set [3] has as its target recombinant TACE (rTACE, ADAM17) (Homo sapiens, UniProt P78536). The experiment in a line: recombinant TACE fluorometric inhibition assay. The data set is classed as biochemical.

Bridge positions count the residues as written; N and C are the ends. Peptide text beside a SMILES is read from it.

Sequence of recombinant TACE (rTACE, ADAM17) (P78536 215-824): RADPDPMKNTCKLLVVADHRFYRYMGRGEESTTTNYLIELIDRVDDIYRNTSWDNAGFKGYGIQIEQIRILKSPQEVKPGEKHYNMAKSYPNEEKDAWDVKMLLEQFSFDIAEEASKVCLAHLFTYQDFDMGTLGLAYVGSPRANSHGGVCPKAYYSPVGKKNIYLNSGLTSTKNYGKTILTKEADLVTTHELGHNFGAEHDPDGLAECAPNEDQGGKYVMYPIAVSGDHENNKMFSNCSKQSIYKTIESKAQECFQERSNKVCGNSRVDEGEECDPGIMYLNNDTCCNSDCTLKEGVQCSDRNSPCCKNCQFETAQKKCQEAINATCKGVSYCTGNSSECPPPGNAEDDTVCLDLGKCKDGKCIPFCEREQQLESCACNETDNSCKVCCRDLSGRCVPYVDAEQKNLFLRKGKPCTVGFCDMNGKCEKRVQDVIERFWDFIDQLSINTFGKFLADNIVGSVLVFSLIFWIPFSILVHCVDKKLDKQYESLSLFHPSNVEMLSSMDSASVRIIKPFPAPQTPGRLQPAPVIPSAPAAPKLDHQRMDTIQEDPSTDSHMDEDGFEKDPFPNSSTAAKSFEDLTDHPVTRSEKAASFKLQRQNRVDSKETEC
Sequence of TACE expressed on THP-1 cells (P78536 215-824): as above

Regarding `CNC(=O)[C@H](Cc1c[nH]c2ccccc12)NC(=O)[C@@H](CC(=O)NO)CC(C)C` [GM6001], in data set [1], the IC50 is 5.5 µM.
Take `CC[C@H](C)[C@@H]1NC(=O)[C@@H]2CSSC[C@H](NC(=O)[C@H](CCCNC(=N)N)NC(=O)[C@@H]3CSSC[C@H](NC1=O)C(=O)N[C@@H]([C@@H](C)O)C(=O)N[C@@H](CCCNC(=N)N)C(=O)NCC(=O)N[C@@H](Cc1ccccc1)C(=O)N3)C(=O)N[C@@H](CC(C)C)C(=O)N[C@H]1CSSC[C@H](NC(=O)[C@H](C(C)C)NC(=O)CNC(=O)[C@H](CCCNC(=N)N)NC(=O)[C@H](CCCNC(=N)N)NC1=O)C(=O)N[C@@H](CCCNC(=N)N)C(=O)N2` [RTD-1] (cyclo(GFCRCLCRRGVCRCICTR); disulfide 3-16, 5-14, 7-12 (inferred); ring closure inferred): the peptide unaltered result in data set [2] was “more than 95%”. In the data set “in vitro”, the amount remaining at 72 h, 50 μg/ml was over 95%. Besides, in the data set with chimpanzees, the “antibody to RTD-1 (immunogenicity)” value is reported as “Neither animal produced an antibody”. The “clinical chemistry and hematologic laboratory values” with chimpanzees (following all injections) is on record as “within normal limits”.
For the compound “HNP-2: human α-defensin from neutrophils (CYCRIPACIAGERRYGTCIYQGRLWAFCC)”, the “inhibition of rTACE” value in data set [3] is listed as “neither human α-defensin (HNP-2 (SEQ_ID NO. 31), HNP-4 (SEQ_ID NO. 33)) inhibited rTACE”.
On the same count and under the same terms, the value for “HNP-4: human α-defensin from neutrophils (VCSCRLVFCRRTELRVGNCLIGGVSFTYCCTRV)” was “neither human α-defensin (HNP-2 (SEQ_ID NO. 31), HNP-4 (SEQ_ID NO. 33)) inhibited rTACE”.

A word on the IC50: it is the concentration at which inhibition is half-maximal. For orientation: fraction remaining means what is left of the initial amount, in per cent. Low values mean a greater loss, high ones greater stability.
